The source of these data is patent US20140171475A1, “ANIMAL ECTOPARASITE-CONTROLLING AGENT” (SUMITOMO CHEMICAL COMPANY, LIMITED, priority 2011, published 2014).

Assay type in all cases: in vivo
Test [1] concerns Ctenocephalides felies fleas on mouse. As to the kind of experiment: Oral administration against mouse-infested fleas. The conditions noted are these: test solution 20 mg/10 mL at 10 mL per 1 kg mouse body weight, 2 days after flea deposition. The procedure: The present benzylamide compound (13) (20 mg) was dissolved in dimethylformamide (680 mg), and thereto a corn oil was added to prepare a test solution (10 mL). Said test solution was orally administered to the mouse at the rate of 10 mL per 1 kg of the body weight of the mouse with a gastric sonde. To a control group, a 7% dimethylformamide/corn oil solution alone was orally administered. Each administration was repeated 3 times per group. After the administration, 20 test fleas (Ctenocephalides felies) were deposited on a mouse.
Two (2) days after the deposition, the number of dead fleas was examined and the mortality was calculated by the following formula:
Mortality (%)=100×(number of dead fleas/number of fleas tested)

The subject of test [2] is Haemaphysalis longicornis (young ticks) on mouse. As to the kind of experiment: Oral administration against mouse-infested ticks. The settings on record: test solution 20 mg/10 mL at 10 mL per 1 kg mouse body weight, 2 days after administration. The procedure: The previous day of an oral administration, 30 test ticks (Haemaphysalis longicornis, young ticks) were deposited on a mouse. Before the oral administration, uninfested ticks were removed.
The present benzylamide compound (13) (20 mg) was dissolved in dimethylformamide (680 mg), and thereto a corn oil was added to prepare a test solution (10 mL). Said test solution was orally administered to the mouse at the rate of 10 mL per 1 kg of the body weight of the mouse with a gastric sonde. To a control group, a 7% dimethylformamide/corn oil solution alone was orally administered. Each administration was repeated 3 times per group.
Two (2) days after the administration, the number of dead ticks was examined and the mortality was calculated by the following formula:
Mortality (%)=100×(number of dead ticks/infested ticks before oral administration)

The test system of test [3] is Ctenocephalides felis fleas on cat. Briefly: Dropping application against cat-infested fleas. The procedure:
The previous day of a dropping application, 50 test fleas (Ctenocephalides felis, adult ticks) were deposited on a cat. Before the dropping application, infested flaes were counted.
Each of the present benzylamide compound (13) (specified weight: 0.375 g, 0.75 g and 1.5 g) was dissolved in diethylene glycol monoethyl ether (6.0 g) to prepare a test solution. Said test solution was directly dropped on the skin of the neck and back of the cat while pushing aside fur thereon at a rate of 0.1 ml per 1 kg of the cat's body weight (dose amount: 5 mg/kg, 10 mg/kg and 20 mg/kg). This is referred to as a test group. On the other hand, diethylene glycol monoethyl ether alone was applied dropwise to a placebo group.
Two (2) days after the application, the number of living fleas, which were infesting the cats, was examined. When the examination was completed, all infested fleas were removed from the cats.
Both of 14 days and 28 days after the application, 50 test fleas (Ctenocephalides felis, adult ticks) were repeatedly deposited on a cat respectively. Two (2) days after the repeated deposition, the number of living ticks, which were infesting the […], was examined respectively. When each of the examination was completed, all infested ticks were removed from the dogs.
The infestation rate and control rate were calculated by the following formulae: […]
Method of calculating infestation rate and control rate at the initial stage (2 days) after the application:
Infestation rate (%) at X days after application=(number of living fleas at X days/number of living fleas before application)×100
Control rate (%) at X days after application {(infestation rate of test group before application infestation rate of test group at X days)/infestation rate of test group before application}×100
Method of calculating infestation rate and control rate at both 16 days and 30 days after the application:
Infestation rate (%) at X days after application=(number of living fleas at X days/number of living fleas repeatedly deposited)×100
Control rate (%) at X days after application {(infestation rate of placebo group at X days−infestation rate of test group at X days)/infestation rate of placebo group after X days}×100
In addition, if an infestation rate of a test group is higher than a placebo group, then the control rate is deemed to be 0%.

For test [4], the system named is Haemaphysalis longicornis (non-blood-fed young ticks). As to the kind of experiment: Pesticidal activity on ticks, dry film contact application test. The conditions noted are these: 48 h. The procedure: Any one of the present benzylamide compounds (12), (13), (15), (28), (29), (30), (31), (32), (33), (34), (37) and (38) (16 μg) was dissolved in acetone (0.2 mL), and into a screw bottle (20 mL volume) this solution was dropwised and capped the bottle. Then the capped-bottle was made rolling so that the inner-surface of the screw bottle was uniformly coated with the solution. The acrew bottle was capped off and allowed to dry up for 2 hours. Into the screw bottle, test ticks (Haemaphysalis longicornis, non-blood-fed young ticks, 10 ticks/group) were added, and capped the bottle. Two (2) days later, the number of dead ticks was examined and the mortality was calculated by the following formula:
Mortality (%)=100×(number of dead ticks/number of ticks tested)

The subject of test [5] is Haemaphysalis longicornis (young ticks) on mouse. As to the kind of experiment: Dropping application against mouse-infested ticks. The conditions noted are these: topical, 48 h, 0.1% w/v solution, 200 μL dropwise to whole body surface of mouse, 2 days after application, read-out: Mortality. The procedure: The previous day of a dropping application, 30 test ticks (Haemaphysalis longicornis, young ticks) were deposited on a mouse. Before the dropping application, uninfested ticks were removed.
Any one of the present benzylamide compounds (12), (13), (15), (28), (29), (30), (31), (32), (33), (34), (36), (37) and (38) (5 mg) was dissolved in a mixture (5 mL) of propylene carbonate and diethylene glycol monoethyl ether in equal volume to prepare a 0.1% w/v solution. Said solution (200 μL) was applied dropwise to the whole body surface of a mouse with a pipette. To a control group, the mixture (200 μL) alone was applied. Said application was repeated 3 times per group.
Two (2) days after the application, the number of dead ticks was examined and the mortality was calculated by the following formula:
Mortality (%)=100×(number of dead ticks/infested ticks before dropping application)

Some results are limits rather than exact numbers.

A word on the mortality: it is the percentage killed. Higher therefore signals a strong lethal effect. With `O=C(NCc1cc(C2=NOC(c3cc(Cl)cc(Cl)c3)(C(F)(F)F)C2)ccc1Cl)C1CC1` (stereo not shown) [Compound (13)], the Mortality in test [1] and in test [2] was at least 70% each time. Moreover, the “Flea control rate (%) at X days after the application” value in test [3] (dropping application 5 mg/kg, 2 days) was found to be 92%; in test [3] (dropping application 5 mg/kg, 16 days) it was 97%; in test [3] (dropping application 5 mg/kg, 30 days), 97%; in test [3] (dropping application 10 mg/kg, 2 days) it was 100%; in test [3] (dropping application 10 mg/kg, 16 days), 100%; in test [3] (dropping application 10 mg/kg, 30 days) it was 100%. Moreover, the “Flea control rate (%) at X days after the application” value in test [3] (dropping application 20 mg/kg, 2 days) is given as 100%; in test [3] (dropping application 20 mg/kg, 16 days), 100%; in test [3] (dropping application 20 mg/kg, 30 days) it was 100%. This molecule gave a mortality at 16 µg/bottle in test [4] of at least 90%. The pest or weed control at 0.1 % strength in test [5] is at least 60%.
